Measurements reported in publication PMC8597046, “Use of Mixture Dosing and Nonlinear Mixed Effect Modeling of Eight Environmental Contaminants in Rabbits to Improve Extrapolation Value of Toxicokinetic Data” (Environmental Health Perspectives, 2021).

Columns and labels:
[1] = rodents; ref Kudo and Kawashima 2003; cited from earlier work
[2] = Nonlinear mixed effect (NLME) compartmental modeling of merged IV and oral serum concentrations; conditions: for Vd / k el / bioavailability / MRT / half-life / clearance / AUC: female, rabbit; for AUCVO/dose: oral dosing; for tvK12 (distribution rate constant) / tvK21 (distribution rate constant) / tvVc (volume of the central compartment) / tvKabs (rate constant of absorption): population primary parameter, typical value; for tvKabs (rate constant of absorption): MEHP after oral DEHP; for Volume(s) of the peripheral compartment: for PFOA first peripheral compartment
Procedure, shortened: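 Rabbit serum concentrations after IV and oral dosing fitted jointly by NLME compartmental modeling (−2LL minimization, Laplacian or QRPEM), exponential between-subject variability, combined additive/proportional error. CL, V2, Q, VZ, AUC (Dose/CL) and terminal half-life derived from population primary parameters.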

[3] = TK assay, oral mixture dosing: serum concentrations and noncompartmental analysis (sparse data); conditions: female, rabbit, in vivo, po; for concentration at 23.98 h: rabbit 15, 23.98 h; for concentration at 671.96 h: rabbit 23, 671.96 h; for concentration at 71.96 h: rabbit 18, 71.96 h; for concentration at 168.02 h: rabbit 19, 168.02 h
Procedure, shortened: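 Female New Zealand white rabbits (10-wk, 2.37±0.14kg) got the compound mixture IV via ear-vein catheter or orally into the mouth; serum sampled 15 min to 28 d, 3 (or 6 at 30 min) rabbits per time. Sparse-data noncompartmental analysis gave AUC (linear trapezoidal), CL or CL_F, half-life and F.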

[4] = New Zealand white (INRA 1777 line), in vivo
[5] = New Zealand white (INRA 1777 line), in vivo, po, Oral bioavailability (F), NLME model
[6] = New Zealand white, in vivo, population secondary parameter, mean
[7] = New Zealand white, in vivo, po, Bioavailability, population secondary parameter, mean, as fraction
[8] = population secondary parameter, mean
[9] = New Zealand white (INRA 1777 line)
[10] = New Zealand white (INRA 1777 line), Serum concentration, oral, rabbit 13, […], MEHP after oral DEHP
[11] = New Zealand white (INRA 1777 line), Serum concentration, oral, rabbit 14, […], MEHP after oral DEHP
[12] = New Zealand white (INRA 1777 line), Serum concentration, oral, MEHP after oral DEHP
[13] = New Zealand white (INRA 1777 line), Serum concentration, rabbit 21, 168.00 h
[14] = New Zealand white (INRA 1777 line), Serum concentration, rabbit 22, 672.02 h
[15] = New Zealand white (INRA 1777 line), Serum concentration
[16] = New Zealand white (INRA 1777 line), Serum concentration, rabbit 24, 672.02 h
[17] = New Zealand white, Serum concentration, oral, rabbit 16, 72.00 h, MEHP after oral DEHP
[18] = New Zealand white, Serum concentration, oral, rabbit 17, 72.00 h, MEHP after oral DEHP
[19] = New Zealand white, Serum concentration, oral, MEHP after oral DEHP
[20] = New Zealand white, Serum concentration
[21] = New Zealand white, Serum concentration, rabbit 20, 168.00 h

In the case of O=C(O)C(F)(F)C(F)(F)C(F)(F)C(F)(F)C(F)(F)C(F)(F)C(F)(F)F [PFOA, perfluorooctanoic acid], the Intestinal absorption [1] is given as 93%, the “tvK13 (distribution rate constant)” value ([2]; PFOA 3-compartments model) is given as 0.0039 h⁻¹ and the “tvK31 (distribution rate constant)” value ([2]; PFOA 3-compartments model) is given as 0.0080 h⁻¹. The “Volume(s) of the peripheral compartment, second value” ([2]; PFOA three-compartment model, second peripheral compartment) was 0.049 L/kg, the Vd [2, 4] was 0.19 L/kg and the k el [2, 4] was 2.08e-05 s⁻¹. For the same molecule, the bioavailability [2, 5] was 100%, the MRT ([2]; New Zealand white, in vivo) was 25 h and the half-life ([2]; New Zealand white, in vivo) was 92 h. The clearance [2, 6] was under 0.167 mL/min/kg, the AUC ([2]; New Zealand white, in vivo, iv) was 26 µM·h and the AUC ([2]; New Zealand white, in vivo, po) was 128 µM·h. The bioavailability [2, 7] was 100%, the AUCVO/dose [2] was 133 μmol×h/L per μmol/kg BW and the “tvK12 (distribution rate constant)” value ([2]; mean) was 0.047 h⁻¹. For the same molecule, the “tvK21 (distribution rate constant)” value ([2]; mean) was 0.127 h⁻¹, the “tvVc (volume of the central compartment)” value ([2]; mean) was 0.101 L/kg and the “tvKabs (rate constant of absorption)” value ([2]; mean) was 1.408 h⁻¹. For the same molecule, the “Volume(s) of the peripheral compartment” value [2, 8] was 0.037 L/kg, the AUC(0-inf) [3, 9] was 169 µM·h and the CL/F [3, 9] was 0.0953 mL/min/kg. For the same molecule, the Cmax [3, 9] was 9070 nM, the MRT [3, 9] was 25.9 h and the Tmax [3, 9] was 4.05 h. The Vd/F [3, 9] was 0.64 L/kg, the bioavailability [3, 9] was over 100% and the half-life [3, 9] was 77.6 h. For the same molecule, the concentration at 4.3 h ([3]; New Zealand white (INRA 1777 line), Serum concentration, oral, rabbit 13, 4.30 h, MEHP after oral DEHP) was 6040 nM, the concentration at 24 h [3, 10] was 2510 nM and the concentration at 0.37 h ([3]; New Zealand white (INRA 1777 line), Serum concentration, oral, rabbit 14, 0.37 h, MEHP after oral DEHP) was 4790 nM. It also gave a concentration at 4.17 h ([3]; New Zealand white (INRA 1777 line), Serum concentration, oral, rabbit 14, 4.17 h, MEHP after oral DEHP) of 6700 nM, a concentration at 24 h [3, 11] of 1530 nM and a concentration at 4.05 h ([3]; New Zealand white (INRA 1777 line), Serum concentration, oral, rabbit 15, 4.05 h, MEHP after oral DEHP) of 9070 nM. It also gave a concentration at 23.98 h [3, 12] of 2340 nM, a concentration at 12 h ([3]; New Zealand white (INRA 1777 line), Serum concentration, oral, rabbit 21, 12.00 h, MEHP after oral DEHP) of 3940 nM and a concentration at 168 h [3, 13] of 9.3 nM. It also gave a concentration at 672.02 h [3, 14] of 0.5 nM, a concentration at 671.96 h [3, 15] of 0.26 nM and a concentration at 672.02 h [3, 16] of 0.49 nM. It also gave a concentration at 0.55 h ([3]; New Zealand white, Serum concentration, oral, rabbit 16, 0.55 h, MEHP after oral DEHP) of 2520 nM, a concentration at 72 h [3, 17] of 110 nM and a concentration at 0.53 h ([3]; New Zealand white, Serum concentration, oral, rabbit 17, 0.53 h, MEHP after oral DEHP) of 2350 nM. The concentration at 72 h [3, 18] was 230 nM, the concentration at 0.55 h ([3]; New Zealand white, Serum concentration, oral, rabbit 18, 0.55 h, MEHP after oral DEHP) was 4200 nM and the concentration at 71.96 h [3, 19] was 78 nM. For the same molecule, the concentration at 12 h ([3]; New Zealand white, Serum concentration, oral, rabbit 19, 12.00 h, MEHP after oral DEHP) was 4880 nM, the concentration at 12 h ([3]; New Zealand white, Serum concentration, oral, rabbit 20, 12.00 h, MEHP after oral DEHP) was 3200 nM and the concentration at 168.02 h [3, 20] was 32 nM. For the same molecule, the concentration at 168 h [3, 21] was 5 nM.

In the case of Cl[C@H]1[C@H](Cl)[C@@H](Cl)[C@H](Cl)[C@@H](Cl)[C@@H]1Cl [β-HCH, β-hexachlorocyclohexane], the Vd [2, 4] was 33 L/kg, the bioavailability [2, 5] was over 85% and the k el ([2]; New Zealand white (INRA 1777 line), serum, other: intravenous and oral data merged) was 4.69e-06 s⁻¹. For the same molecule, the MRT ([2]; New Zealand white, in vivo) was 379 h, the half-life ([2]; New Zealand white, in vivo) was 318 h and the clearance [2, 6] was 1.45 mL/min/kg. It also gave an AUC ([2]; New Zealand white, in vivo, iv) of 20 µM·h, an AUC ([2]; New Zealand white, in vivo, po) of 87 µM·h and a bioavailability [2, 7] of 88%. For the same molecule, the AUCVO/dose [2] was 12.5 μmol×h/L per μmol/kg BW, the “tvK12 (distribution rate constant)” value ([2]; mean) was 0.0593 h⁻¹ and the “tvK21 (distribution rate constant)” value ([2]; mean) was 0.0110 h⁻¹. The “tvVc (volume of the central compartment)” value ([2]; mean) was 5.1310 L/kg, the “tvKabs (rate constant of absorption)” value ([2]; mean) was 0.0955 h⁻¹ and the “Volume(s) of the peripheral compartment” value [2, 8] was 28 L/kg. For the same molecule, the AUC(0-inf) [3, 9] was 67.1 µM·h, the CL/F [3, 9] was 1.73 mL/min/kg and the Cmax [3, 9] was 297 nM. For the same molecule, the MRT [3, 9] was 369 h, the Tmax [3, 9] was 24 h and the Vd/F [3, 9] was 47 L/kg. The bioavailability [3, 9] was 55%, the half-life [3, 9] was 314 h and the concentration at 24 h [3, 10] was 390 nM. The concentration at 24 h [3, 11] was 200 nM, the concentration at 23.98 h [3, 12] was 190 nM and the concentration at 168 h [3, 13] was 99 nM. The concentration at 0.57 h ([3]; New Zealand white (INRA 1777 line), Serum concentration, rabbit 22, 0.57 h) was 29 nM, the concentration at 672.02 h [3, 14] was 13 nM and the concentration at 0.55 h ([3]; New Zealand white (INRA 1777 line), Serum concentration, rabbit 23, 0.55 h) was 73 nM. The concentration at 671.96 h [3, 15] was 30 nM, the concentration at 0.55 h ([3]; New Zealand white (INRA 1777 line), Serum concentration, rabbit 24, 0.55 h) was 250 nM and the concentration at 672.02 h [3, 16] was 43 nM. It also gave a concentration at 72 h [3, 17] of 94 nM, a concentration at 72 h [3, 18] of 160 nM and a concentration at 71.96 h [3, 19] of 180 nM. The concentration at 168.02 h [3, 20] was 88 nM and the concentration at 168 h [3, 21] was 89 nM.
